Structures can show the parent of a compound that is named as a salt. Each block holds one compound with its values, some of them ahead of it.
Columns and labels:
sebum secretion = experiment: Inhibitory effect of MMPs inhibitors on sebum secretion in UVB-irradiated hairless mice (sebumeter); assay type: in vivo
Text: UV is generally known to activate the sebaceous gland cells on the skin and thereby to enhance the amount of sebum secretion, which has been reported on a model using hairless mice ([…] et al., Arch Dermatol., Vol. 284, 106 (1992)). In an experiment, Bissett et al. (Phytochem. Phytobiol, Vol. 46, 3, 367 (1987)) applied the method of preparing a light-aged skin, and induced the activation of sebaceous gland cells and enhancement in the amount of sebum by irradiating the dorsal area of the […] repeatedly three times per week for 5-8 weeks by controlling the amount of UVB irradiation to under the […] formation level. […] As the control, a group in which the solvent for the test substance was applied in a similar protocol was set up, and the effect of inhibiting sebum was evaluated by comparing the amount of sebum between the two. The measurement of sebum amount was performed using a sebumeter (COURAGE KHAZAKA company). From the measured values, the ratio (%) of sebum inhibition was calculated based on the following criteria: [formula]

[1] = system: gelatinase belonging to the MMPs; details: skin irradiated with UVB for 10 weeks, EDTA (100 mM) added in vitro; FIG. 3C
Text: By staining gelatin with the Ponceau solution, the gelatin digested area (the area in which the gelatinase activity is present) was rendered white for detection.

sebaceous gland = experiment: Effect of transdermal application of an MMPs inhibitor on sebaceous gland development under UVB stimulation; assay type: in vivo, hairless mice; details: FIG. 4A vs solvent only FIG. 4B
Text: It is known that when UVB (50 mJ/cm^2-200 mJ/cm^2; 50 mJ/cm^2 at the start of irradiation, the amount of irradiation is increased stepwise depending on the number of irradiations) below the erythema formation level is repeatedly irradiated to hairless mice, the sebaceous gland becomes developed and the amount of sebum increases (R. H. Lesnik et al., Arch Dermatol., Vol. 284, 106 (1992)). FIG. 2A and FIG. 2B represent the H&E stains of the UVB-non-irradiated tissue and the UVB-irradiated tissue. It is observed that UVB irradiation results in the thickening of the epidermis as well as the development of the sebaceous gland.
(§1) The effect of the transdermal application of an MMPs inhibitor on the sebaceous gland development and the gelatinase activity present in the sebaceous gland is shown for active substance A as an example (FIG. 4A and FIG. 4B).

gelatinase = experiment: Gelatinase activity in the sebaceous gland after transdermal application, in situ zymography; assay type: in vivo, hairless mice; details: FIG. 4A vs solvent only FIG. 4B
Text: as §1

[2] = 100 μl of 1% test substance applied three times per week immediately after each UV irradiation, vs solvent group, hairless mice dorsal area, 5-8 weeks UVB

Structure (SMILES): COc1cc(/C=C/C(=O)CC(=O)/C=C/c2ccc(O)c(OC)c2)ccc1O [Curcumine, curcumine]
Ratio of sebum inhibition (%) (sebum secretion; [2]): 77%

Gelatin degradation at the epidermal area and the sebaceous gland area [1]: inhibited the gelatin degradation
Structure (SMILES): O=C(O)CN(CCN(CC(=O)O)CC(=O)O)CC(=O)O [EDTA]

Structure (SMILES): C[C@]12CC[C@@H]3c4ccc(O)cc4CC[C@H]3[C@@H]1CC[C@@H]2O [Estradiol, estradiol, reference compound]
Ratio of sebum inhibition (%) (sebum secretion; positive control, 0.6 mg/kg oral administration, UVB-irradiated hairless mice): 65%

Structure (SMILES): COc1ccc(S(=O)(=O)N(Cc2cccnc2)[C@@H](C(=O)NO)C(C)C)cc1 [Hydrochloride of active ingredient A]
Ratio of sebum inhibition (%) (sebum secretion; [2]): 79%

Structure (SMILES): COc1ccc(S(=O)(=O)N(Cc2cccnc2)[C@@H](C(=O)NO)C(C)C)cc1 [active substance A]
Development of the sebaceous gland area (sebaceous gland): suppresses the development of the sebaceous gland area
Gelatinase activity present in the sebaceous gland (gelatinase): inhibited

Source: US20040009241A1, “External skin preparations for suppressing sebum secretion” (priority 2002, published 2004)
